Some test systems named below: UACC-62; SK-OV-3; MOLT-4; IGROV-1; SR; SK-MEL-28; SK-MEL-5; CAKI-1; NCI-H226; DMS-114; HCT-116; NCI-H522; UACC-257; UO-31; NCI-H23; M14; LOX IMVI; COLO 205; PC-3; RPMI-8226.
What all share (assay): growth of human tumour cells (NCI), 48 h

The text below walks through data of ChEMBL document CHEMBL1201862, “PubChem BioAssay data set” (2004).

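1) Cells in 96-well plates. 2) Compound, 48 h, 5 concentrations. 3) Linear interpolation between surrounding doses. 4) Unreached endpoint = highest concentration. GI50 marks 50% less growth.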 The source made the active and inactive calls. Rule as the data show it: active = GI50 up to about 1.1 µM and inactive = higher.

Regarding `NC(CO)c1ccccc1` (stereo not given), the GI50 with UACC-62, in the experiment on SK-OV-3, in the experiment with MOLT-4, with IGROV-1, in the experiment on SR and with SK-MEL-28 was > 100 µM (inactive) throughout. For the same compound, the GI50 in the experiment with SK-MEL-5, in the experiment on CAKI-1, with NCI-H226, with DMS-114, in the experiment with HCT-116 and in the experiment on NCI-H522 was > 100 µM (inactive) throughout. Also, the GI50 with UACC-257 was > 100 µM (inactive); with UO-31, > 100 µM (inactive); in the experiment on NCI-H23, > 10 µM (inactive); in the experiment on M14 it was > 100 µM (inactive); in the experiment with LOX IMVI, > 100 µM (inactive).
With `C/C=C(/C)C(=O)O[C@@H]1c2c(C)coc2C[C@H]2CC[C@H](O)[C@H](C)[C@]21C`, the GI50 in the experiment on UACC-62 was 43.8 µM (inactive); with SK-OV-3 it was > 100 µM (inactive); with COLO 205, > 100 µM (inactive); with PC-3 it was 97.7 µM (inactive); in the experiment on MOLT-4, 30.6 µM (inactive); with IGROV-1 it was 43.3 µM (inactive). Moreover, the GI50 with SR was 49.9 µM (inactive); with SK-MEL-28 it was 44.8 µM (inactive); in the experiment with SK-MEL-5, 35.6 µM (inactive); in the experiment on CAKI-1, > 100 µM (inactive); in the experiment with NCI-H226, 52.1 µM (inactive); in the experiment on RPMI-8226, 31.3 µM (inactive). The GI50 with HCT-116 was 31.6 µM (inactive); with NCI-H522, 60 µM (inactive); with UACC-257 it was 34.2 µM (inactive); in the experiment with UO-31, 68.2 µM (inactive); in the experiment on NCI-H23 it was 34.2 µM (inactive); with M14 it was 54.1 µM (inactive). Besides, the GI50 in the experiment on LOX IMVI was 49.4 µM (inactive).
In the case of `COc1ccc2[nH]c3c(C)c4cc[n+](C)cc4c(C)c3c2c1`, the GI50 was 3.48 µM (inactive) in the experiment on UACC-62; 6.78 µM (inactive) in the experiment on SK-OV-3; 3.54 µM (inactive) in the experiment with PC-3; 2.19 µM (inactive) in the experiment on IGROV-1; 2.18 µM (inactive) in the experiment on SK-MEL-28; 1.76 µM (inactive) in the experiment on SK-MEL-5. The GI50 is 0.301 µM (active) with NCI-H226; 0.412 µM (active) in the experiment with DMS-114; 2 µM (inactive) in the experiment with HCT-116; 0.562 µM (active) with NCI-H522; 12.1 µM (inactive) with UACC-257; 21.7 µM (inactive) with UO-31. Moreover, the GI50 in the experiment with NCI-H23 is 0.649 µM (active); in the experiment on LOX IMVI, 10.2 µM (inactive).
As to `c1ccc(COc2ccc(CC3SCCCS3)cc2)cc1`, the GI50 with UACC-62 is > 100 µM (inactive); with COLO 205 it was > 100 µM (inactive); in the experiment on PC-3, > 100 µM (inactive); in the experiment on MOLT-4, 31.8 µM (inactive); with IGROV-1 it was 66.2 µM (inactive); in the experiment on SR, 34.4 µM (inactive). The GI50 with SK-MEL-28 is > 100 µM (inactive); with SK-MEL-5, 35.2 µM (inactive); in the experiment with CAKI-1, 62.7 µM (inactive); in the experiment on RPMI-8226, 50.2 µM (inactive); with HCT-116 it was > 100 µM (inactive); with NCI-H522 it was > 100 µM (inactive). The GI50 is 21.8 µM (inactive) in the experiment with UACC-257, > 100 µM (inactive) in the experiment with M14 and > 100 µM (inactive) in the experiment on LOX IMVI.
`Cc1cc(O)nc(NN2C(Cl)C(=O)C2c2cccc(O)c2)n1` (stereo not given): the GI50 in the experiment with UACC-62 is 3.37 µM (inactive); in the experiment on COLO 205, 39.4 µM (inactive); with MOLT-4, 5.38 µM (inactive); in the experiment on IGROV-1, 4.8 µM (inactive); with SR, 4.11 µM (inactive); with SK-MEL-28 it was 26.5 µM (inactive). The GI50 in the experiment with SK-MEL-5 was 12.2 µM (inactive); with RPMI-8226, 9.59 µM (inactive); in the experiment with DMS-114 it was 5.11 µM (inactive); with HCT-116 it was 2.87 µM (inactive); with UACC-257, 18.7 µM (inactive); in the experiment with UO-31 it was 3.83 µM (inactive). The results for the GI50 with NCI-H23, in the experiment on M14 and with LOX IMVI were 5.73 µM (inactive), 7.13 µM (inactive) and 4.53 µM (inactive), respectively.
